Here are results for twelve compounds from patent publication US11319295B2, “Substituted phenyloxetane and phenyltetrahydrofuran compounds as indoleamine 2,3-dioxygenase (IDO) inhibitors” (MERCK SHARP & DOHME CORP., priority 2017, dated 2022).

Read-outs that look alike come from different tables or passages of the source.

Assay [1] addresses T1, IDO1 (Homo sapiens, UniProt P14902). Nature of the assay: IDO1 Cellular Assay in Hela Cells Stimulated with IFNγ. Conditions: Hela IC50 (nM), Hela cells stimulated with IFNγ 100 ng/mL, 300 uM L-tryptophan, about 48 hours; form screened: Neutral.
Experimental: Hela cells were cultured in complete Hela culture medium (90% EMEM, 10% heat-inactivated fetal bovine serum) and expanded to about 1×10^9 cells. The cells were then collected and frozen down at 1×10^7 cells/vial in 1 mL frozen medium (90% complete Hela culture medium, 10% DMSO)
Compounds to be tested were serially diluted in ten 3-fold steps in DMSO starting from 10 mM DMSO stocks in Echo low volume plate(s).
Hela cells with and without IFNγ were dispensed to the respective wells of 384-well assay plates containing the compounds. The plates were incubated for about 48 hours at a 37° C., 5% CO2 incubator. Afterwards, 12 mL of 0.5 M methyl isonipecotate in dimethyl sulfoxide were added into each well and the plates were sealed and incubated at 37° C. without CO2 overnight. The plates were centrifuged for 1 min at 200×g. The resulting fluorescence was measured in a Spectramax plate reader (Molecular Devices) with a 400 nm excitation filter and a 510 nm emission filter.
Potencies were calculated by linear least squares fit to the four parameter logistic IC50 equation.
Another assay has as its target TDO (Homo sapiens, UniProt P48775).
The target in assay [2] is T1, IDO1. Nature of the assay: IDO1 Human Whole Blood Assay. More on the design: Human whole blood was drawn in sodium heparin coated tubes from healthy internal donors; from tissue; host or cells: human whole blood from healthy donors, stimulated with LPS and IFNγ. In kind it is cell-based. Particulars: LPS and IFNγ 100 ng/mL, 18 h, kynurenine by LC/MS/MS, form screened: Neutral. How it is done:
IDO1 Human Whole Blood Assay
LPS and IFNγ was prepared in RPMI to a 10× of final conc. (1000 ng/mL), final concentration is 100 ng/mL.
Human whole blood was drawn in sodium heparin coated tubes from healthy internal donors. […] of blood was transferred to each of the wells of a v-bottom 96 well plate. […] of compound was transferred from intermediate dilution plate, and incubated for 15 min. 30 μL from stimulants was then transferred to blood and mixed thoroughly. Plate was covered with breathable membrane and incubated at 37° C. for overnight (18 h).
On day 2 isotope labeled standard of kynurenine and tryptophan was made in water at 10× concentration and […] was added to the blood at […] final concentration. The assay plates were centrifuged at 300×G for 10 min with no brake to separate plasma from red blood cells. […] of plasma samples was removed without disturbing red blood cells. Plasma was diluted with RPMI in 1:1 ratio and proteins were precipitated out with two volume of Acetonitrile. The plates was centrifuged at 4000×G for 60 min. 20 mL of supernatant was carefully transferred to a 384 well plate contain 40 mL of 0.1% formic acid in water and analyzed by LC/MS/MS.
LC/MS/MS analyses were performed using Thermo Fisher's LX4-TSQ Quantum Ultra system. This system consists of four Agilent binary high-performance liquid chromatography (HPLC) pumps and a TSQ Quantum Ultra triple quadruple MS/MS instrument. For each sample, […] were injected onto an Atlantis T3 column (2.1 mm×150 mm, […]) from Waters. The mobile phase gradient pumped at 0.8 mL/min was used to elute the analytes from the column at 25° C. […] Mobile phase A consisted of 0.1% formic acid in water. Mobile phase B consisted of 0.1% of formic acid in acetonitrile. Data was acquired in positive mode using a HESI interface. […] Compounds were titrated and IC50's were calculated by 4 parameter sigmoidal curve fitting formula.

[3] abbreviates: read-out: SW48 IC50, SW48 cells, 300 uM L-tryptophan, about 48 hours, form screened: Neutral.

T1 sequence (P14902 whole entry): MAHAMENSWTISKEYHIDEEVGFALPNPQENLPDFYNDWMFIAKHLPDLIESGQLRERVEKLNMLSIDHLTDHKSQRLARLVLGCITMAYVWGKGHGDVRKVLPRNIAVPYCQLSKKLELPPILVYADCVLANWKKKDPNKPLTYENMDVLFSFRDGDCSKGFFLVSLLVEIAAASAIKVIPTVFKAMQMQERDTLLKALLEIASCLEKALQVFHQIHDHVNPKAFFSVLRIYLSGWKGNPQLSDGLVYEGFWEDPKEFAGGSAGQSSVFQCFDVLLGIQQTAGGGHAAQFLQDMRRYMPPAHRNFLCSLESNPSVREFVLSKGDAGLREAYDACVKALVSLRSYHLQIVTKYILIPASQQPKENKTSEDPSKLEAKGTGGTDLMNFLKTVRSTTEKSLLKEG
TDO, sequence (P48775 whole entry): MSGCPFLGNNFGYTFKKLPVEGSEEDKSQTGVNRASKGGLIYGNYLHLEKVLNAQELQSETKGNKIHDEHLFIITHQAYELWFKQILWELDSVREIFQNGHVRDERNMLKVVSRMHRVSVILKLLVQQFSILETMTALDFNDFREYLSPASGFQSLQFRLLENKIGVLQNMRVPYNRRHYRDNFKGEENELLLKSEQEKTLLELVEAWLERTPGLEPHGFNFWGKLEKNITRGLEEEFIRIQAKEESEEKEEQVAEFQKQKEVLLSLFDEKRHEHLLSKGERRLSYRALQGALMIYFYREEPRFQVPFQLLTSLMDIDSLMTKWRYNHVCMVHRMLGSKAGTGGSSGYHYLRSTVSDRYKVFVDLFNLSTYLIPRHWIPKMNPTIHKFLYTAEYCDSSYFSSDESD
Experimental for TDO: TDO Cellular Assay in Frozen SW48 Cells
SW48 cells were cultured in complete RPMI culture medium (90% RPMI, 10% heat-inactivated fetal bovine serum).
SW48 and A2780 cells were dispensed to the respective wells of 384-well assay plates containing the compounds. The plates were incubated for about 48 hours at a 37° C., 5% CO2 incubator. Afterwards, 12 μL of 0.5 M ethyl isonipecotate (Sigma Aldrich, Cat #E33505) in dimethyl sulfoxide were added into each well and the plates were sealed and incubated at 37° C. without CO2 overnight. The plates were centrifuged for 1 minute at 200×g. The resulting fluorescence was measured in a Spectramax plate reader (Molecular Devices) with a 400 nm excitation filter and a 510 nm emission filter.
The fluorescence intensity of each well was corrected for the background observed in wells with A2780 cells and was expressed as a fraction of the intensity observed in wells of SW48 cells and DMSO only. Potencies were calculated by linear least squares fit to the four parameter logistic IC50 equation.

By IC50 is commonly meant the concentration that gives 50% inhibition. As for `CC1CC1NC(=O)C1(c2ccc(NC(=O)c3cccc(Cl)c3)cc2)COC1` (single isomer, unassigned) [Example 9, 3-{4-[(3-chlorobenzene-1-carbonyl)amino]phenyl}-N-(2-methylcyclo-propyl)oxetane-3-carboxamide], the IC50 against IDO1 [1] was 216 nM; at TDO (setting [3]), not below 10000 nM.

As for `CC1CC1NC(=O)C1(c2ccc(NC(=O)c3cccc(Cl)c3)cc2)COC1` (single isomer, unassigned) [Example 4, 3-{4-[(3-chlorobenzene-1-carbonyl)amino]phenyl}-N-(2-methylcyclopropyl)oxetane-3-carboxamide], the IC50 at IDO1 [1] is 12 nM; on IDO1 [2], 324 nM; at TDO (setting [3]), not below 10000 nM.

`Cc1cc(NC(=O)c2cccc(Cl)c2)cnc1C1(C(=O)Nc2ccc(F)cc2)COC1` [Example 19, 3-{5-[(3-chlorobenzene-1-carbonyl)amino]-3-methylpyridin-2-yl}-N-(4-fluorophenyl)oxetane-3-carboxamide]: 205 nM corresponded to half-maximal inhibition against IDO1 [1] (IC50).

Regarding `N#Cc1cccc(C(=O)Nc2ccc(C3(C(=O)Nc4ccc(F)cc4)COC3)nc2)c1` [Example 20, 3-{5-[(3-cyanobenzene-1-carbonyl)amino]pyridin-2-yl}-N-(4-fluorophenyl)oxetane-3-carboxamide], the values for the IC50 at IDO1 [1] and on IDO1 [2] were 3 nM and 438 nM, respectively.

For the compound `Cc1cc(C2(C(=O)Nc3ccc(F)cc3)COC2)ncc1NC(=O)c1cccc(C#N)c1` [Example 18, 3-{5-[(3-cyanobenzene-1-carbonyl)amino]-4-methylpyridin-2-yl}-N-(4-fluorophenyl)oxetane-3-carboxamide], at IDO1 [1], the IC50 came to 58 nM.

With `O=C(Nc1ccc(C2(C(=O)NCCC(F)(F)F)COC2)cc1)c1cccc(Cl)c1` [Example 6, 3-{4-[(3-chlorobenzene-1-carbonyl)amino]phenyl}-N-(3,3,3-trifluoropropyl)oxetane-3-carboxamide], the values for the IC50 against IDO1 [1] and against TDO were 51 nM and not below 10000 nM, respectively.

Take `O=C(Nc1ccc(C2(C(=O)Nc3ccc(F)cc3)COC2)cc1)c1cccc(Cl)c1F` [Example 3, 3-{4-[(3-chloro-2-fluorobenzene-1-carbonyl)amino]phenyl}-N-(4-fluorophenyl)oxetane-3-carboxamide]: the IC50 was 3 nM against IDO1 [1] and not below 10000 nM against TDO.

Take `O=C(Nc1ccc(C2(C(=O)NCC3CC3)COC2)cc1)c1cccc(Cl)c1` [Example 7, 3-{4-[(3-chlorobenzene-1-carbonyl)amino]phenyl}-N-(cyclopropyl-methyl)oxetane-3-carboxamide]: the IC50 is 56 nM against IDO1 [1] and not below 10000 nM at TDO.

Take `CCCNC(=O)C1(c2ccc(NC(=O)c3cccc(Cl)c3)cc2)COC1` [Example 5, 3-{4-[(3-chlorobenzene-1-carbonyl)amino]phenyl}-N-propyloxetane-3-carboxamide]: the IC50 came out at 25 nM at IDO1 [1] and 1530 nM against IDO1 [2].

Regarding `CC1CC1NC(=O)C1(c2ccc(NC(=O)c3cccc(Cl)c3)cc2)COC1` (single isomer, unassigned) [Example 10, 3-{4-[(3-chlorobenzene-1-carbonyl)amino]phenyl}-N-(2-methylcyclo-propyl)oxetane-3-carboxamide], the IC50 is 352 nM on IDO1 [1] and not below 10000 nM at TDO (setting [3]).

On IDO1 [1], `Cc1cc(C2(C(=O)Nc3ccc(F)cc3)COC2)ncc1NC(=O)c1cccc(Cl)c1` [Example 17, 3-{5-[(3-chlorobenzene-1-carbonyl)amino]-4-methylpyridin-2-yl}-N-(4-fluorophenyl)oxetane-3-carboxamide] returned an IC50 of 6 nM.

For the compound `CC1CC1NC(=O)C1(c2ccc(NC(=O)c3cccc(Cl)c3)cc2)COC1` (single isomer, unassigned) [Example 8, 3-{4-[(3-chlrobenzene-1-carbonyl)amino]phenyl}-N-(2-methylcyclo-propyl)oxetane-3-carboxamide], the IC50 against IDO1 [1] was 85 nM; at TDO, not below 10000 nM.
